The source made the active and inactive calls.
Columns and labels:
[1] = biological target: T1, Hexokinase-1 (Homo sapiens, UniProt P19367); experiment: SAR analysis of small molecule inhibitors of hexokinase domain containing I (HKDC1) in the hexokinase 1 selectivity assay. [Related pubchem assays (depositor defined):AID493160, AID493190]; type: functional
T1 sequence (P19367 whole entry): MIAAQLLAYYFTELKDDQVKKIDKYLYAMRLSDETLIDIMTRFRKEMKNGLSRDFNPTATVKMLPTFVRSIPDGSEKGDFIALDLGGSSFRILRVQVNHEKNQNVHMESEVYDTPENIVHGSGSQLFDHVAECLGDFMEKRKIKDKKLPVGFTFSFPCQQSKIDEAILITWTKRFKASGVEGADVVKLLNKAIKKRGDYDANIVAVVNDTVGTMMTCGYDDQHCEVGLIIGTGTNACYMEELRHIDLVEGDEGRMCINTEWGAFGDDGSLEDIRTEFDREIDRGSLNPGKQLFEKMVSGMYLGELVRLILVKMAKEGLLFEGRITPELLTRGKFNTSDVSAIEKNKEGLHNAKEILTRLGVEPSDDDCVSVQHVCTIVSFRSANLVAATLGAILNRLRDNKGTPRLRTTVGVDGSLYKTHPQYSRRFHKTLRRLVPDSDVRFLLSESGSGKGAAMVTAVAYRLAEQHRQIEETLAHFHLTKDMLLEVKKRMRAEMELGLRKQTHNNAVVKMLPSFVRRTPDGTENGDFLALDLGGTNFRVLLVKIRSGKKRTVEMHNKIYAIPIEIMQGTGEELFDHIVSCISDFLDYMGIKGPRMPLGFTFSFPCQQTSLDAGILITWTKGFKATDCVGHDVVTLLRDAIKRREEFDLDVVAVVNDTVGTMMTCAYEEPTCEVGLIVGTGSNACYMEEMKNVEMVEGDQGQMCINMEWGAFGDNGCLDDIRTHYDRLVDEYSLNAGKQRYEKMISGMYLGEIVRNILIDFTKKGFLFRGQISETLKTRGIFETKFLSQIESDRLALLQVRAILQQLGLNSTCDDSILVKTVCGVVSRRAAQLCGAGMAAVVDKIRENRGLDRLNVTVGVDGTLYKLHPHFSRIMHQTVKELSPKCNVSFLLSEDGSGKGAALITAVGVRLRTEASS

[2] = biological target: T2, Hexokinase HKDC1 (Homo sapiens, UniProt Q2TB90); experiment: SAR analysis of small molecule inhibitors of hexokinase domain containing I (HKDC1). [Related pubchem assays (depositor defined):AID493160, AID493190]; type: functional
T2 sequence (Q2TB90 whole entry): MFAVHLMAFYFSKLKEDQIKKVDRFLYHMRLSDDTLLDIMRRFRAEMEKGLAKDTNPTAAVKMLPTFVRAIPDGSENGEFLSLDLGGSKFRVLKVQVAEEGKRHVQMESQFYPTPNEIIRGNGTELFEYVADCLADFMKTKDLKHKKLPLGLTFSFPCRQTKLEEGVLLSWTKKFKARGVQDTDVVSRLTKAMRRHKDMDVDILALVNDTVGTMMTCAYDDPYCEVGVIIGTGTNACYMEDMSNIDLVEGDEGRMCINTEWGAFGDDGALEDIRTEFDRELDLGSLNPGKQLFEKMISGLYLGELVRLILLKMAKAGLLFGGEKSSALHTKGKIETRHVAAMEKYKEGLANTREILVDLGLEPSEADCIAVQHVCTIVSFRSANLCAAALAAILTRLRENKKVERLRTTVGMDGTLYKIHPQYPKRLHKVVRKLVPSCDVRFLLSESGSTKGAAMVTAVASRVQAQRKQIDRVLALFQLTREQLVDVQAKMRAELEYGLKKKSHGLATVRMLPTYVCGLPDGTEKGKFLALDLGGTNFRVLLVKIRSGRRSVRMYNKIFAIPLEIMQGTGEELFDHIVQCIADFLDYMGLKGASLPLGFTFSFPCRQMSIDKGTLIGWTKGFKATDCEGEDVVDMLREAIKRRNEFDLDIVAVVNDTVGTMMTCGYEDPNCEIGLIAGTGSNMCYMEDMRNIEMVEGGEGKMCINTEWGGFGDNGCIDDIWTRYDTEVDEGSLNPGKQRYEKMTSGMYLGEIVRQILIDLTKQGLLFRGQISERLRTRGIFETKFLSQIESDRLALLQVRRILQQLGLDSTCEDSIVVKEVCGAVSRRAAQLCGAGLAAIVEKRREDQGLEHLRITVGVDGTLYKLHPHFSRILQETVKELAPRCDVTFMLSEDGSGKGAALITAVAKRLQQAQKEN

[3] = NIH-3T3 fibroblast cytotoxicity, dose response, cytotoxicity control, cell-based, fluorescence, Alamar Blue, secondary assay (AID 2327); type: functional;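 note: NIH-3T3 mouse fibroblasts cultured with fluconazole at 8 µg/mL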
[4] = fluconazole-exposed Candida albicans growth modulators – fluorescence, retest, confirmation (AID 2467); type: functional, cell-based
[5] = biological target: T3, Serine/threonine-protein phosphatase (Candida dubliniensis (strain CD36 / CBS 7987 / NCPF 3949 / NRRLY-17841) (Yeast), UniProt B9W6M3); experiment: blockers of CaCl2-induced CDRE-lacZ signaling – S. cerevisiae, luminescence, secondary, dose response (AID 2388); type: functional, cell-based;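 note: yeast reporter cells carrying a calcineurin-responsive lacZ construct stimulated with calcium chloride; luminescent beta-galactosidase reporter signal in whole cells rather than isolated phosphatase activity; potency for inhibition where a drop in reporter signal means calcineurin blockade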
T3 sequence (B9W6M3 whole entry): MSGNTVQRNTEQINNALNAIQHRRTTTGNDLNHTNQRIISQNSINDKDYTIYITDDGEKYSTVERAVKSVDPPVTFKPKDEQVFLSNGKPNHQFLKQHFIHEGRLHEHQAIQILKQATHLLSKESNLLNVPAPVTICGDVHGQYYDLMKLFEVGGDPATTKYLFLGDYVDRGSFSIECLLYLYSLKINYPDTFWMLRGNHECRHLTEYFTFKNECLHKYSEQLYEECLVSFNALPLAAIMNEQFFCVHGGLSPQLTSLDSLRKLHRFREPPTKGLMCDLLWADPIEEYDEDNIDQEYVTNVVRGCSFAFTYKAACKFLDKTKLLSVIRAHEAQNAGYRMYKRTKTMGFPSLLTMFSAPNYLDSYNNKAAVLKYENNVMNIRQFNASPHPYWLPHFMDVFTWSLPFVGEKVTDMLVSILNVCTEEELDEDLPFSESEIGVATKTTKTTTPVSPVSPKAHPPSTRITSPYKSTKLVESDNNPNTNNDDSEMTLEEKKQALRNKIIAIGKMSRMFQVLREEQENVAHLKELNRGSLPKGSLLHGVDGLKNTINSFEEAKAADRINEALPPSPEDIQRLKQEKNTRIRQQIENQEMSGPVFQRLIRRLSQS

[6] = biological target: T4, Bcl-2-related protein A1 (Mus musculus, UniProt Q07440); type: functional;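 note: confirmatory dose–response counterscreen on Bfl-1, used to check hits from a UBC13 polyubiquitin inhibitor campaign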
T4 sequence (Q07440 whole entry): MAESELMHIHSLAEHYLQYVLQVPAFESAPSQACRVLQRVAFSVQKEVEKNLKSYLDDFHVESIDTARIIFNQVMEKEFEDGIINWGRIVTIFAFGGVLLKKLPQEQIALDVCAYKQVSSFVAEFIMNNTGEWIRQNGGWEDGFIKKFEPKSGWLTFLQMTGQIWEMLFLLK

[7] = biological target: T5, Ubiquitin-conjugating enzyme E2 N (Homo sapiens, UniProt P61088); type: functional
T5 sequence (P61088 whole entry): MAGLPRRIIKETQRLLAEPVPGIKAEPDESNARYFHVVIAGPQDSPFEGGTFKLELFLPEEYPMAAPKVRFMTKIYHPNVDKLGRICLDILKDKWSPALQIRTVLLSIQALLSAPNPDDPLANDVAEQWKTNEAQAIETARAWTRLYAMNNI

[8] = biological target: T5, Ubiquitin-conjugating enzyme E2 N; type: functional; remark: listed apart in the source
[9] = system: Vero; experiment: cells; type: functional; conditions: Chlorocebus sabaeus
[10] = biological target: ATP-dependent molecular chaperone HSP82 (Candida albicans (strain WO-1) (Yeast), UniProt C4YTQ8); experiment: steroid-induced GRE reporter decrease in yeast – S. cerevisiae, luminescence, Hsp90 inhibitor project, dose response (AID 2400); type: functional, cell-based;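 note: beta-galactosidase luminescence from glucocorticoid response element reporter as proxy for Hsp90 function; inhibitor potency where signal loss means Hsp90 inhibition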
ATP-dependent molecular chaperone HSP82, sequence (C4YTQ8 whole entry): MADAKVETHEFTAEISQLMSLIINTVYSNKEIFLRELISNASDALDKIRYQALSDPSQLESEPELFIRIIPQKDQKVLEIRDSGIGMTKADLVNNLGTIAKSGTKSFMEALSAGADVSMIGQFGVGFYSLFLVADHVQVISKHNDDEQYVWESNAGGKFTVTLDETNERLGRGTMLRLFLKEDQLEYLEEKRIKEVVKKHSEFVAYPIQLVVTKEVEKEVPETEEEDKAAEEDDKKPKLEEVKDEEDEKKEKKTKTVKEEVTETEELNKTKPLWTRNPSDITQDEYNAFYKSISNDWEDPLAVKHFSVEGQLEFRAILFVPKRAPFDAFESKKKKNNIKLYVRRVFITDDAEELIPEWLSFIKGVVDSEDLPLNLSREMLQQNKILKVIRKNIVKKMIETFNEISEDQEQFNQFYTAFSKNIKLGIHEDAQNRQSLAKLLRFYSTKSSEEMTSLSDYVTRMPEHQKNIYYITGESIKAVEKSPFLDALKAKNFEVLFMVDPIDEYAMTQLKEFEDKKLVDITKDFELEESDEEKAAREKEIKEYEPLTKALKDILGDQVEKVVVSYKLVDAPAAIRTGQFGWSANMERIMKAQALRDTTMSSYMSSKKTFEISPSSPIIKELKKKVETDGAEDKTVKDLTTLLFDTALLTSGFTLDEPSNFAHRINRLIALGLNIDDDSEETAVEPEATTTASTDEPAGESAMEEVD

[11] = biological target: T6, Leucine aminopeptidase (Plasmodium falciparum 3D7, UniProt Q8IL11); experiment: P. falciparum M17LAP inhibitors, primary screen, biochemical, fluorogenic H-Leu-NHMec substrate, 1536-well (AID 1619); type: functional
T6 sequence (Q8IL11 whole entry): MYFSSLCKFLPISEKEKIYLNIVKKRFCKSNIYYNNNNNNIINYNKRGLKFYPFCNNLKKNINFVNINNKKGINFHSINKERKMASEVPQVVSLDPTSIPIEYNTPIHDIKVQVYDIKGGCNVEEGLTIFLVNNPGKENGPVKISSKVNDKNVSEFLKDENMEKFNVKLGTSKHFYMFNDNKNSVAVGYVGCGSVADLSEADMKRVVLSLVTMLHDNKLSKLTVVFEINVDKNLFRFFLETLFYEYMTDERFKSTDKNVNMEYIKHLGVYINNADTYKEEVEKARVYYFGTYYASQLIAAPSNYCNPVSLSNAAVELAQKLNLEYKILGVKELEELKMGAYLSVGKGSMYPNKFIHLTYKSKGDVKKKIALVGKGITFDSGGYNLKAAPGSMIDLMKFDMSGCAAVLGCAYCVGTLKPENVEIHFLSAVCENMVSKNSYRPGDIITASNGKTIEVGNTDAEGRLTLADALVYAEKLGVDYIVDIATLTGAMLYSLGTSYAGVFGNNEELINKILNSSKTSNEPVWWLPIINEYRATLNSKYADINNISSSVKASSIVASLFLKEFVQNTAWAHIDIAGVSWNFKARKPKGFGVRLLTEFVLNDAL

[12] = biological target: T7, Cysteine protease ATG4B (Homo sapiens, UniProt Q9Y4P1); type: functional;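 note: Fluorescence-based dose-response confirmation assay measuring inhibition of ATG4B activity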
T7 sequence (Q9Y4P1 whole entry): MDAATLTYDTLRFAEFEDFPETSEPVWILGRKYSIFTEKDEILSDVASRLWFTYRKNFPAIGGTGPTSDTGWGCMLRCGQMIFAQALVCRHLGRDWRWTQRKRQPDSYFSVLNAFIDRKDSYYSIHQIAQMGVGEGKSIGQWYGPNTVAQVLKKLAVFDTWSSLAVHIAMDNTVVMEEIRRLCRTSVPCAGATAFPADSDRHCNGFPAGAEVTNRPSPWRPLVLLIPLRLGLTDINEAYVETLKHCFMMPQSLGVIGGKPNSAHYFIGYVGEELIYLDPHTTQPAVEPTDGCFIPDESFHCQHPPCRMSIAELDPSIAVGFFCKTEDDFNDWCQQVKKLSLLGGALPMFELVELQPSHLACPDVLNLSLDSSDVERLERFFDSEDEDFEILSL

[13] = biological target: Phospholipase A2 (Homo sapiens, UniProt P04054); type: functional;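 note: confirmatory dose-response counterscreen on phospholipase A2, testing hits that came from an ultra-high-throughput screen for ATG4B inhibitors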
Phospholipase A2, sequence (P04054 whole entry, the tested form may be a part): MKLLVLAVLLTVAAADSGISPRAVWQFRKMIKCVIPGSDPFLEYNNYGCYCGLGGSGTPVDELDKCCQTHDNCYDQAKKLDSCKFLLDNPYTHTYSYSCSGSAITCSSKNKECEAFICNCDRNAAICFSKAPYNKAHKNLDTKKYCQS

[14] = biological target: T8, Carboxy-terminal domain RNA polymerase II polypeptide A small phosphatase 1 (Homo sapiens, UniProt Q9GZU7); experiment: CTDSP1 inhibitors, concentration-response, biochemical, absorbance readout, ultra-high-throughput screen actives (AID 540297); type: functional
T8 sequence (Q9GZU7 whole entry): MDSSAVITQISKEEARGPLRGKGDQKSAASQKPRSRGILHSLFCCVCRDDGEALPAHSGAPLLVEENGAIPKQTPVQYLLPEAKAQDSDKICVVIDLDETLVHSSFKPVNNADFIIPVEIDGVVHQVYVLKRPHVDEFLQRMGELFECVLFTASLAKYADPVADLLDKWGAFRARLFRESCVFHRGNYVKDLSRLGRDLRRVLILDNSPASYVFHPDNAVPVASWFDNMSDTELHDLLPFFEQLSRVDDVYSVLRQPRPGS

Row | Structure (SMILES) | IC50 [1] | IC50 [2] | IC50 [12] | IC50 [13] | also measured
1 | COc1cc2c(cc1OC)-c1cc(NCc3ccc4c(c3)OCO4)nc(=O)n1CC2 | > 80 µM (inactive) | > 80 µM (inactive) |  |  | 
2 | Cc1ccc(/C=C/c2nc3ccccc3c(=O)n2Cc2ccccc2)cc1 | > 80 µM (inactive) | > 80 µM (inactive) |  |  | 
3 | Cc1cc(C)cc(OCC(=O)NNC(=S)NC(=O)C2CC2)c1 |  |  |  |  | EC50 [3]: 43.5 µM (active); EC50 [4]: 0.962 µM (active); EC50 [5]: > 180 µM (inactive); IC50 [6]: > 20 µM (inactive); IC50 [7]: 7.6 µM (active); IC50 [8]: 7.38 µM (active); CC50 [9]: > 25 µM (active); EC50 [10]: 17.8 µM (active)
4 | CCOC(=O)c1ccc(/C=C2/C=C(c3ccccc3)N(c3ccc(Cl)c(C(=O)O)c3)C2=O)cc1 |  |  | 12.3 µM (active) | 8.04 µM (active) | IC50 [11]: 29.5 µM (active); IC50 [14]: 5.15 µM (active)
5 | CN(C)c1ccc(/C=C/c2nc3ccccc3c(=O)n2Cc2ccccc2)cc1 | > 80 µM (inactive) | > 80 µM (inactive) |  |  | 
6 | c1ccc(CSc2nnc3c(n2)OC(c2ccco2)Nc2ccccc2-3)cc1 (stereo not given) |  |  | 43 µM (inactive) | 40.1 µM (inactive) | 

From ChEMBL document CHEMBL1201862, “PubChem BioAssay data set” (2004)
